The values that follow come from patent US6620828B2, “Thiazole compounds and pharmaceutical compositions for inhibiting protein kinases and methods for their use” (Agouron Pharmaceuticals, Inc., priority 1999, dated 2003).

SMILES strings stand for the structures.

Format in all cases: biochemical
In assay [1] the target is T1, phosphorylated VEGF-R2Δ50 (FLVK-P) (Homo sapiens, UniProt P35968, DEL940-989/E990V).
T1 construct: VEGF-R2Δ50 contains residues 806-939 and 990-1171; made in house; host or cells: baculovirus/insect cells
Kind of assay: VEGF-R2 coupled spectrophotometric (FLVK-P) assay. Conditions: combinatorial library compounds; for inhibition at 20 µM: read-out: VEGF % inhibition at 20 μM, 20 μM. The essentials: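 Baculovirus-expressed human VEGF-R2Δ50 (residues 806-939/990-1171, E990V) was autophosphorylated with 3 mM ATP, 40 mM MgCl2 for 2 h at 4° C. ADP formation was coupled via PK/LDH to NADH oxidation, read at 340 nm, with 5.1 mM poly(E4Y1), 1 mM ATP, 25 mM MgCl2, Hepes pH 7.5. Ki came from activity across compound concentrations.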

A further assay concerns the target T2, FL-CHK1 (Homo sapiens, UniProt O14757).
T2 construct: C-terminally His-tagged full-length human CHK1 (FL-CHK1); 6xHis (C); made in house; host or cells: baculovirus/insect cells
T2 sequence (O14757 1-476): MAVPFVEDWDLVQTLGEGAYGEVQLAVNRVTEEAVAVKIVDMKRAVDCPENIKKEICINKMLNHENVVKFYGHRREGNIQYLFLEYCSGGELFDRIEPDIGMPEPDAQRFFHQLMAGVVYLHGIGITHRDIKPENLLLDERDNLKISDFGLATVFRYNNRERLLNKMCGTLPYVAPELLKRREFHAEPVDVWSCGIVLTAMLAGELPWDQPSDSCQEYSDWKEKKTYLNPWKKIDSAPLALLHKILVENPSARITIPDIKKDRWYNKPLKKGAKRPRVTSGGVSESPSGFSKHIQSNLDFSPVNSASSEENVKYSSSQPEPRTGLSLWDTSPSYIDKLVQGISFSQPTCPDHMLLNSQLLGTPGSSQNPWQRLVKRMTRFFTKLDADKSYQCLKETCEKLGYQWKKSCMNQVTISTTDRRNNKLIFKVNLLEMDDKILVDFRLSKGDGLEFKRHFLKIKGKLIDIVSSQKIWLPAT
As to the kind of experiment: CHK1 assay. The following applies: 20 μM; combinatorial library compounds. The essentials:
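Full-length human CHK1 with C-terminal 6×His tag, made in baculovirus/insect cells, 10 nM, phosphorylating 0.125 mM Syntide-2 with 0.15 mM ATP in 50 mM Tris pH 7.5, 25 mM MgCl2, 400 mM NaCl. PK/LDH-coupled NADH oxidation read at 340 nm. Ki from initial rates over varied compound concentrations.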

A further assay addresses CDK2/Cyclin A complex (Homo sapiens, UniProt P24941). Kind of assay: CDK2/Cyclin A assay. Conditions: 1.0 μM; combinatorial library compounds. The essentials:
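Radiometric assay: 150 nM CDK2/cyclin A (insect-cell CDK2, truncated cyclin A) phosphorylates His-tagged Rb fragment (residues 386-928) with 25 μM ATP plus [32P]ATP, pH 7.4 HEPES, 2% DMSO, 30 °C for 20 min. Filter-captured product counted by phosphorimager; apparent Ki from competitive or tight-binding inhibition fits.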

The next assay deals with T3, CDK4/Cyclin D3 complex (Homo sapiens, UniProt P11802).
T3 construct: made in house; host or cells: insect cells co-infected with baculovirus vectors
Kind of assay: CDK4/Cyclin D assay. Conditions: 1.0 μM; combinatorial library compounds. The essentials:
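Insect-cell-expressed CDK4/cyclin D3 (50 nM) phosphorylating His-tagged Rb fragment (residues 386-928) with 25 μM [^32P]ATP in HEPES pH 7.4, MgCl2, 2% DMSO; 20 min at 30 °C, EDTA stop. Filter-captured 32P by phosphorimager; apparent Ki from competitive or tight-binding inhibition fits.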

T1 sequence (P35968 with tags, fused parts or gaps DEL940-989/E990V limits assumed): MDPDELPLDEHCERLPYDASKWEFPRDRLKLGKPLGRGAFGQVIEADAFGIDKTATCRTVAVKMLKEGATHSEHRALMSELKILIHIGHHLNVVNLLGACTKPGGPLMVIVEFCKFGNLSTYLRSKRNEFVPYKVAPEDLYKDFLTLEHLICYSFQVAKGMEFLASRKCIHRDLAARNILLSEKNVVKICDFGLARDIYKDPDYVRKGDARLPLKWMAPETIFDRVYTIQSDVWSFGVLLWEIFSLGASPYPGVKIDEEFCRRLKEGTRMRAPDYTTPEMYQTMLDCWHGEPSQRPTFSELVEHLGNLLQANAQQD
T3 sequence (P11802 whole entry): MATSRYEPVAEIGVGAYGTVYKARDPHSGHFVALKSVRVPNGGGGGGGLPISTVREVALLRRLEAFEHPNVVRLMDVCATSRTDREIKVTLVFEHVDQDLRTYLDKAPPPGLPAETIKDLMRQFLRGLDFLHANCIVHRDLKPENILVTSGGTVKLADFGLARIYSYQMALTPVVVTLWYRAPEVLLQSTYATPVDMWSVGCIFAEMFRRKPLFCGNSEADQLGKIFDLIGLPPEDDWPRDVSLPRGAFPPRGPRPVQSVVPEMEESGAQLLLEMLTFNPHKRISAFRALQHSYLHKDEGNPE
T3 sequence (P30281 whole entry partner): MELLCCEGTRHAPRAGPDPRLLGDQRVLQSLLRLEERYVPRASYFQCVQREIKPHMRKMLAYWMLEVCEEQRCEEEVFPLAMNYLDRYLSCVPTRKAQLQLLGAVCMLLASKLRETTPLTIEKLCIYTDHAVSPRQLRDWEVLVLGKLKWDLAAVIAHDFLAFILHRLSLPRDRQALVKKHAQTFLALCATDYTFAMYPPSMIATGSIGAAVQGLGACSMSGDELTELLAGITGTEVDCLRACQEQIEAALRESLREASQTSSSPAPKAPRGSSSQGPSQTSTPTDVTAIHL

In general, inhibition refers to the change of the read-out against control, counted positive when it falls. For `Nc1nc(Nc2ccc(S(N)(=O)=O)cc2)sc1-c1nc(-c2ccc(C(F)(F)F)cc2)cs1`, the inhibition at 20 µM was 2% in assay [1] and 4.2% at FL-CHK1. The figures for the inhibition at 1 µM at CDK2/Cyclin A complex and at CDK4/Cyclin D3 complex were 4.5% and -3.6%, respectively.
`CC(C)c1ccc(Nc2nc(N)c(-c3nc(-c4ccc(C#N)cc4)cs3)s2)cc1`: the inhibition at 20 µM in assay [1] stood at 7%; on FL-CHK1, 7.1%. For the same molecule, the inhibition at 1 µM at CDK2/Cyclin A complex was 5.9%; at CDK4/Cyclin D3 complex it was 58.4%.
On the same counts, the results for `CC(C)c1ccc(Nc2nc(N)c(-c3nc(-c4ccccc4OC(=O)c4ccccc4)cs3)s2)cc1` are 7%, -4.2%, 4.8% and 56.1%.
On the same counts, the results for `Cc1cc(-c2csc(-c3sc(Nc4ccc(C(C)C)cc4)nc3N)n2)ccc1Cl` are -7%, 9%, 11.7% and 9.1%.
For the molecule `CC(C)c1ccc(Nc2nc(N)c(-c3nc(-c4ccc(Cl)c(Cl)c4)cs3)s2)cc1`, the inhibition at 20 µM in assay [1] is -4%; at FL-CHK1 it was 0.3%. The results for the inhibition at 1 µM on CDK2/Cyclin A complex and on CDK4/Cyclin D3 complex were 10.4% and -7.9%, respectively.
The corresponding values for `Cc1c(-c2csc(-c3sc(Nc4ccc(S(N)(=O)=O)cc4)nc3N)n2)sc2ccccc12` are 3%, 5.6%, 9.2% and -0.3%.
On the same counts, the results for `CN(C)c1ccc(Nc2nc(N)c(-c3nc(-c4ccc(Cl)cc4Cl)cs3)s2)cc1` are 19%, 26.9%, 17.3% and 76.1%.
In the case of `Nc1nc(Nc2ccc(S(N)(=O)=O)cc2)sc1-c1nc(-c2ccc(F)cc2F)cs1` [drawing 445], the inhibition at 20 µM in assay [1] turned out to be 40%; at FL-CHK1, 21.6%. Moreover, the inhibition at 1 µM on CDK2/Cyclin A complex stood at 74.1%; at CDK4/Cyclin D3 complex it was 58.2%.
The corresponding values for `Nc1nc(Nc2ccc(S(N)(=O)=O)cc2)sc1-c1nc(-c2cc(-c3ccccc3)no2)cs1` are -1%, -1.2%, 12% and -0.5%.
On the same counts, the results for `Cc1ccc(-c2csc(-c3sc(Nc4ccc(C(C)C)cc4)nc3N)n2)cc1` are -2%, 0.8%, 14.2% and 55.9%.
`COc1cccc(-c2csc(-c3sc(Nc4ccc(N(C)C)cc4)nc3N)n2)c1`: the inhibition at 20 µM in assay [1] came to 10%; at FL-CHK1 it was 7.8%. The figures for the inhibition at 1 µM on CDK2/Cyclin A complex and at CDK4/Cyclin D3 complex were 16.3% and -20.3%, respectively.
The corresponding values for `COc1ccc2nc(-c3ccccc3)c(-c3csc(-c4sc(Nc5ccc(S(N)(=O)=O)cc5)nc4N)n3)cc2c1` are 3%, 9.7%, 61.4% and 53.4%.
Take `CN(C)c1ccc(Nc2nc(N)c(-c3nc(-c4cc(C(C)(C)C)c(O)c(C(C)(C)C)c4)cs3)s2)cc1`: the inhibition at 20 µM in assay [1] came out at 6%; at FL-CHK1 it was 37.1%. For the same molecule, the inhibition at 1 µM at CDK2/Cyclin A complex came to 18.3%; at CDK4/Cyclin D3 complex it was 73.2%.
On to `CN(C)c1ccc(Nc2nc(N)c(-c3nc(-c4cc(-c5ccccc5)no4)cs3)s2)cc1`, for which the inhibition at 20 µM in assay [1] turned out to be 5%; on FL-CHK1, 0.8%. Besides, the inhibition at 1 µM at CDK2/Cyclin A complex was determined as 24%; on CDK4/Cyclin D3 complex, 29.6%.
On the same counts, the results for `Cc1cc(-c2csc(-c3sc(Nc4ccc(C(C)C)cc4)nc3N)n2)cc(C)c1O` are 45%, 5.1%, 14.1% and 74.6%.
The corresponding values for `CC(C)c1ccc(Nc2nc(N)c(-c3nc(-c4cc(C(C)(C)C)c(O)c(C(C)(C)C)c4)cs3)s2)cc1` are -6%, 7.9%, 20.9% and 46.8%.
The corresponding values for `Cc1c(-c2csc(-c3sc(Nc4ccc(N(C)C)cc4)nc3N)n2)sc2ccccc12` are 26%, 3.2%, 23.3% and 12.1%.
For `Nc1nc(Nc2ccc(S(N)(=O)=O)cc2)sc1-c1nc(-c2c(Cl)cc(C(F)(F)F)cc2Cl)cs1`, the inhibition at 20 µM is 9% in assay [1] and 21.7% on FL-CHK1. Also, the inhibition at 1 µM at CDK2/Cyclin A complex was 53.9%; on CDK4/Cyclin D3 complex it was 58%.
The corresponding values for `CC(C)c1ccc(Nc2nc(N)c(-c3nc(-c4ccc(F)cc4F)cs3)s2)cc1` are 46%, 19.7%, 30.6% and 91.5%.
For `CC(C)c1ccc(Nc2nc(N)c(-c3nc(-c4ccc[nH]4)cs3)s2)cc1`, the inhibition at 20 µM was determined as 22% in assay [1] and 17.6% at FL-CHK1. The results for the inhibition at 1 µM at CDK2/Cyclin A complex and at CDK4/Cyclin D3 complex were 19% and 53.3%, respectively.
The corresponding values for `Cc1c(F)cc(-c2csc(-c3sc(Nc4ccc(N(C)C)cc4)nc3N)n2)cc1Cl` are 9%, 27%, 8.2% and 76.5%.
The corresponding values for `CCCCCc1ccc(-c2csc(-c3sc(Nc4ccc(N(C)C)cc4)nc3N)n2)cc1` are -8%, 9.5%, -6% and 36.2%.
On the same counts, the results for `CC(C)c1ccc(Nc2nc(N)c(-c3nc(-c4cc5cc(Cl)ccc5o4)cs3)s2)cc1` are -11%, 3.4%, 17% and 33.2%.
Consider `COc1ccc(-c2csc(-c3sc(Nc4ccc(S(N)(=O)=O)cc4)nc3N)n2)c(OC)c1`, for which the inhibition at 20 µM in assay [1] was 3%; at FL-CHK1 it was -3.9%. Also, the inhibition at 1 µM on CDK2/Cyclin A complex is 12.5%; at CDK4/Cyclin D3 complex it was -1.2%.
Regarding `Nc1nc(Nc2ccc(S(N)(=O)=O)cc2)sc1-c1nc(-c2ccccc2)cs1` [drawing 421], the inhibition at 20 µM in assay [1] stood at 23%; on FL-CHK1 it was 11.2%. In addition, the “CDK2 % Inhibition at 1.0 μM” value on CDK2/Cyclin A complex came out at 8.2%. On CDK4/Cyclin D3 complex, the “CDK4 % Inhibition at 1.0 μM” value is −33.4%.
In the case of `Nc1nc(Nc2ccc(S(N)(=O)=O)cc2)sc1-c1nc(C2C=C([N+](=O)[O-])C=CC2)cs1` (centres unmarked), the values for the inhibition at 20 µM (in assay [1]; at FL-CHK1) were 30% and 10.8%, respectively. Besides, the inhibition at 1 µM on CDK2/Cyclin A complex is 17.8%; on CDK4/Cyclin D3 complex, -28.6%.
For the molecule `Cc1c(-c2csc(-c3sc(Nc4ccc(S(N)(=O)=O)cc4)nc3N)n2)sc2ccc(Cl)cc12` [drawing 426], the “VEGF % inhibition at 20 μM” value in assay [1] (20 μM) was found to be 19%. In addition, the “CHK1 % Inhibition at 20 μM” value on FL-CHK1 worked out at 9.7%. At CDK2/Cyclin A complex, the “CDK2 % Inhibition at 1.0 μM” value is given as 56%. In addition, on CDK4/Cyclin D3 complex, the “CDK4 % Inhibition at 1.0 μM” value amounted to 70.6%.
As to `Cc1cc(-c2csc(-c3sc(Nc4ccc(N(C)C)cc4)nc3N)n2)c(C)s1`, the inhibition at 20 µM in assay [1] is 32%; at FL-CHK1 it was 43.9%. Moreover, the inhibition at 1 µM was found to be 24% on CDK2/Cyclin A complex and 64.1% on CDK4/Cyclin D3 complex.
The corresponding values for `CCN(CC)c1ccc(-c2csc(-c3sc(Nc4ccc(C(C)C)cc4)nc3N)n2)cc1` are 9%, -5.3%, 12.2% and 73%.
